According to patent publication US20240316054A1, “NOVEL PLK1 PROTEIN DEGRADATION-INDUCING COMPOUND” (UPPTHERA, INC., priority 2021, published 2024):

Experiments:
PLK1 = molecular target: T1, PLK1 (Homo sapiens, UniProt P53350); assay: Luciferase (HiBit) assay of PLK1 degradation in HeLa LgBit (Plk1-HiBit KI) cells; format: cell-based; conditions: for PLK1 (luminescence value): released after thymidine block, compound 300 nM, luminescence at 9 hours, DMSO-only control
T1 construct: endogenous in cells; host or cells: HeLa cells stably expressing LgBit, with CRISPR/Cas9 knock-in of HiBit at the PLK1 C-terminus
Description: (§1) Cell lines were constructed by transfecting LgBit vector into HeLa and HEK293T cell lines to be stably expressed. Then, gRNA and a donor were created to express the HiBit amino acid sequence behind the C-terminus of the PLK1 and BRD4 proteins contained in each cell, and then inserted into the cells together with a vector capable of expressing CRISPR/Cas9. Only cells that had undergone knock-in after completion of insertion were selected and passaged to be used.
(§2) Compounds according to Comparative Examples and Examples were completely dissolved in DMSO (Sigma-Aldrich Cat. No. D2438, Lot. No. RNBJ6524) and used in the following experiments. The compound of Comparative Example was the HBL-4 compound disclosed in the document (see Mu et al., Biochem Biophys Res Commun., 2020, 521(4): 833), which targets PLK1 and BRD4 like the compounds of the present invention, and the DMSO-only treatment group was used as the control group.
As to HeLa LgBit (Plk1-HiBit KI), cells were released after thymidine block, and then treated with compounds, and the process was as follows. Thymidine (Sigma-Aldrich Cat. No. T9250-5G) was completely dissolved in DW and used in the experiment. For thymidine block, cells were treated with 2 mM thymidine and incubated for 24 hours. For release and chemical treatment, the medium was suctioned and washed with 1×PBS. TyppLE™ was added and the cells were incubated for 5 min in a 37° C. CO2 incubator. Cells neutralized by adding complete medium were counted using the counter. For each well of a 96-well white plate (SPL), 3.3×10^4 cells were seeded in a total culture medium volume of 150 μl and incubated in a CO2 incubator.
(§3) Each cell line was incubated in a CO2 incubator for 18 hours, and then Endurazine was added to each well to reach 4% of the total volume. Here, the concentration of each compound after the addition was 300 nM for HeLa LgBit (Plk1-HiBit KI) and 100 nM for HEK293T LgBit (BRD4-HiBit KI). Then, the wavelength of the plate reader was set to 470 to 480 nm, and luminescence was tracked in real time.

BRD4 = molecular target: T2, BRD4 (Homo sapiens, UniProt O60885); assay: Luciferase (HiBit) assay of BRD4 degradation in HEK293T LgBit (BRD4-HiBit KI) cells; format: cell-based; conditions: for BRD4 (luminescence value): compound 100 nM, luminescence at 8 hours, DMSO-only control
T2 construct: endogenous in cells; host or cells: HEK293T cells stably expressing LgBit, with CRISPR/Cas9 knock-in of HiBit at the BRD4 C-terminus
Description: as §1, §2
As to HEK293T LgBit (BRD4-HiBit KI), 4×10^4 cells were seeded in each well of a 96-well white plate (SPL) and cultured in a total culture medium volume of 150 μl.
as §3

T1 sequence (P53350 whole entry): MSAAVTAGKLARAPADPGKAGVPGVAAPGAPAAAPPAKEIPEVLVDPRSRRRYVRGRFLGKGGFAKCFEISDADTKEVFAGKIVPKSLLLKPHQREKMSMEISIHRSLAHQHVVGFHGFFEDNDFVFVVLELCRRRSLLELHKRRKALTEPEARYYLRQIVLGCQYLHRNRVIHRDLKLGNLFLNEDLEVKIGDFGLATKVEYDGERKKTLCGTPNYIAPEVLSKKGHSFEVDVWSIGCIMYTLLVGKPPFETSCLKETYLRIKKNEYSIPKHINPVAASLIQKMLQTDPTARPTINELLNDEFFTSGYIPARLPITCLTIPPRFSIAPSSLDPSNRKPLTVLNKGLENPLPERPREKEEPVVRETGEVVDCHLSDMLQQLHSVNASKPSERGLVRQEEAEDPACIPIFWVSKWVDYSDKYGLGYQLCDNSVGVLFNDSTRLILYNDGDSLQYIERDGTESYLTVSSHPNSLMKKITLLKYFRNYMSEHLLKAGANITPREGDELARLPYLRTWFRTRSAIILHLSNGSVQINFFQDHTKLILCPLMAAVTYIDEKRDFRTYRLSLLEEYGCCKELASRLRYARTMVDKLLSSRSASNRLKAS

SMILES | PLK1 (luminescence value) (PLK1) | BRD4 (luminescence value) (BRD4) | PLK1 degradation level (PLK1; 300 nM, 9 hours) [%] | BRD4 degradation level (BRD4; 100 nM, 8 hours) [%]
CC[C@@H]1C(=O)N(C)c2cnc(Nc3ccc(C(=O)NCCOCCOCCOCCOCCNc4cccc5c4C(=O)N(C4CCC(=O)NC4=O)C5=O)cc3OC)nc2N1C1CCCC1 (stereo partly drawn) [Compound 5, 4-(((R)-8-cyclopentyl-7-ethyl-5-methyl-6-oxo-5,6,7,8-tetrahydropteridin-2-yl)amino)-N-(14-((2-(2,6-dioxopiperidin-3-yl)-1,3-dioxoisoindolin-4-yl)amino)-3,6,9,12-tetraoxatetradecyl)-3-methoxybenzamide] | 0.140 | 0.491 |  | 
CC[C@@H]1C(=O)N(C)c2cnc(Nc3ccc(C(=O)NC4CCN(C(=O)CCN5CCN(c6cccc7c6C(=O)N(C6CCC(=O)NC6=O)C7=O)CC5)CC4)cc3OC)nc2N1C1CCCC1 (stereo partly drawn) [Compound 7, 4-(((R)-8-cyclopentyl-7-ethyl-5-methyl-6-oxo-5,6,7,8-tetrahydropteridin-2-yl)amino)-N-(1-(3-(4-(2-(2,6-dioxopiperidin-3-yl)-1,3-dioxoisoindolin-4-yl)piperazin-1-yl)propanoyl)piperidin-4-yl)-3-methoxybenzamide] | 0.120 | 0.488 |  | 
CC[C@@H]1C(=O)N(C)c2cnc(Nc3ccc(C(=O)NC4CCN(C(=O)CCCNc5cccc6c5C(=O)N(C5CCC(=O)NC5=O)C6=O)CC4)cc3OC)nc2N1C1CCCC1 (stereo partly drawn) [Compound 8, 4-(((R)-8-cyclopentyl-7-ethyl-5-methyl-6-oxo-5,6,7,8-tetrahydropteridin-2-yl)amino)-N-(1-(4-((2-(2,6-dioxopiperidin-3-yl)-1,3-dioxoisoindolin-4-yl)amino)butanoyl)piperidin-4-yl)-3-methoxybenzamide] | 0.204 | 0.394 |  | 
CC[C@@H]1C(=O)N(C)c2cnc(Nc3ccc(C(=O)N[C@H]4CC[C@H](N5CCN(CCOCCNc6cccc7c6C(=O)N(C6CCC(=O)NC6=O)C7=O)CC5)CC4)cc3OC)nc2N1C1CCCC1 (stereo partly drawn) [Compound 10, 4-(((R)-8-cyclopentyl-7-ethyl-5-methyl-6-oxo-5,6,7,8-tetrahydropteridin-2-yl)amino)-N-((1r,4R)-4-(4-(2-(2-((2-(2,6-dioxopiperidin-3-yl)-1,3-dioxoisoindolin-4-yl)amino)ethoxy)ethyl)piperazin-1-yl)cyclohexyl)-3-methoxybenzamide] | 0.343 | 0.629 |  | 
CC[C@@H]1C(=O)N(C)c2cnc(Nc3ccc(C(=O)NCCOCCOCCNc4cccc5c4C(=O)N(C4CCC(=O)NC4=O)C5=O)cc3OC)nc2N1C1CCCC1 (stereo partly drawn) [Comparative Example 1, reference compound] | 0.148 | 0.223 | ≥ 80 | ≥ 80
CC[C@@H]1C(=O)N(C)c2cnc(Nc3ccc(C(=O)NCCOCCOCCNc4cccc5c4C(=O)N(C4CCC(=O)NC4=O)C5=O)cc3)nc2N1C1CCCC1 (stereo partly drawn) [Compound 4, 4-(((R)-8-cyclopentyl-7-ethyl-5-methyl-6-oxo-5,6,7,8-tetrahydropteridin-2-yl)amino)-N-(2-(2-(2-((2-(2,6-dioxopiperidin-3-yl)-1,3-dioxoisoindolin-4-yl)amino)ethoxy)ethoxy)ethyl)benzamide] | 0.208 | 0.692 |  | 
COc1cc(C(=O)NCCOCCOCCNc2cccc3c2C(=O)N(C2CCC(=O)NC2=O)C3=O)ccc1Nc1ncc2c(n1)N(C1CCCCC1)[C@H](C)C(=O)N2C (stereo partly drawn) [Compound 9, 4-(((R)-8-cyclohexyl-5,7-dimethyl-6-oxo-5,6,7,8-tetrahydropteridin-2-yl)amino)-N-(2-(2-(2-((2-(2,6-dioxopiperidin-3-yl)-1,3-dioxoisoindolin-4-yl)amino)ethoxy)ethoxy)ethyl)-3-methoxybenzamide] | 0.207 | 0.484 |  | 
CC[C@@H]1C(=O)N(C)c2cnc(Nc3ccc(C(=O)N[C@H]4CCN(C(=O)CCC(=O)N5CCN(c6cccc7c6C(=O)N(C6CCC(=O)NC6=O)C7=O)CC5)C4)cc3OC)nc2N1C1CCCC1 (stereo partly drawn) [Compound 6, 4-(((R)-8-cyclopentyl-7-ethyl-5-methyl-6-oxo-5,6,7,8-tetrahydropteridin-2-yl)amino)-N-((3S)-1-(4-(4-(2-(2,6-dioxopiperidin-3-yl)-1,3-dioxoisoindolin-4-yl)piperazin-1-yl)-4-oxobutanoyl)pyrrolidin-3-yl)-3-methoxybenzamide] | 0.313 | 0.731 |  | 
